Assay results published in ChEMBL document CHEMBL2321655, “Insulin-like growth factor-1 receptor inhibitors: a potential cancer treatment: patent highlight” (ACS Med Chem Lett, 2013).

Columns and labels:
MCF7 = test: Antiproliferative activity against human MCF7 cells; assay type: functional, cell-based
HT-29 = test: Antiproliferative activity against human HT-29 cells; assay type: functional, cell-based

IC50 (MCF7) [nM] | IC50 (HT-29) [nM] | Compound
800 | 2800 | NC(=O)c1[nH]c2c(NC3CCOCC3)cc(Cl)cc2c1S(=O)(=O)N1CCOC(COc2ccccc2)C1 (stereo not drawn)
2200 | > 10000 | NC(=O)c1[nH]c2c(N)cc(Cl)cc2c1S(=O)(=O)N1CCOC(COc2ccccc2)C1 (stereo not drawn)
< 1000 | 5300 | N#CCCNc1cc(Cl)cc2c(S(=O)(=O)N3CCOC(COc4ccccc4)C3)c(C(N)=O)[nH]c12 (stereo not drawn)
900 | 1700 | CCOC(=O)N1CCC(Nc2cc(Cl)cc3c(S(=O)(=O)N4CCOC(COc5ccccc5)C4)c(C(N)=O)[nH]c23)CC1 (stereo not drawn)
